# Data taken from patent US9204653B2, “5-fluoro pyrimidine derivatives” (DOW AGROSCIENCES LLC, priority 2008, dated 2015).
# Read-outs that look alike come from different tables or passages of the source.
# System: Mycosphaerella graminicola; Anamorph: Septoria tritici; Bayer Code SEPTTR
# Experiment: Leaf blotch of wheat, foliar fungicide treatment, one day protectant (1DP) or three day curative (3DC)
# Assay type: in vivo, Septoria tritici on wheat plants (variety Yuma)
# Settings: Zymoseptoria tritici; for pest or weed control at 50 ppm / pest or weed control at 200 ppm: % disease control rating
# [1] = 24 h, one day protectant (1DP), 25 ppm, percent disease control rating, read-out: SETTTR 1DP 25 ppm
# [2] = 24 h, one day protectant (1DP), percent disease control rating, read-out: SEPTTR 1DP 100 ppm
# [3] = 72 h, three day curative (3DC), 25 ppm, percent disease control rating, read-out: SEPTTR 3DC 25 ppm
# [4] = 72 h, three day curative (3DC), percent disease control rating, read-out: SEPTTR 3DC 100 ppm
# [5] = 24 h, one day protectant (1DP), 25 ppm, rating of percent disease control, read-out: SETTTR 1DP 25 ppm
# [6] = 24 h, one day protectant (1DP), rating of percent disease control, read-out: SEPTTR 1DP 100 ppm
# [7] = 72 h, three day curative (3DC), 25 ppm, rating of percent disease control, read-out: SEPTTR 3DC 25 ppm
# [8] = 72 h, three day curative (3DC), rating of percent disease control, read-out: SEPTTR 3DC 100 ppm
# [9] = 24 h, one day protectant, 25 ppm, rating of percent disease control, read-out: SETTTR 1DP 25 ppm
# [10] = 24 h, one day protectant, rating of percent disease control, read-out: SEPTTR 1DP 100 ppm
# [11] = 72 h, three day curative, 25 ppm, rating of percent disease control, read-out: SEPTTR 3DC 25 ppm
# [12] = 72 h, three day curative, rating of percent disease control, read-out: SEPTTR 3DC 100 ppm
# [13] = 24 h, one day protectant (1DP), 25 ppm (first 1DP column), percent control rating, read-out: SETTTR 1DP 25 ppm
# [14] = 24 h, one day protectant (1DP), 25 ppm as printed (second 1DP column), percent control rating, read-out: SETTTR 1DP 25 ppm
# [15] = 72 h, three day curative (3DC), 25 ppm, percent control rating, read-out: SEPTTR 3DC 25 ppm
# [16] = 72 h, three day curative (3DC), percent control rating, read-out: SEPTTR 3DC 100 ppm
smiles,measurement,setting,value
"CN(C)/C=N/c1nc(O)ncc1F [Compound 25, N′-(5-Fluoro-2-hydroxy-pyrimidin-4-yl)-N,N-dimethyl-formamidine]",pest or weed control at 25 ppm,[1],76 to 100%
same,pest or weed control at 100 ppm,[2],76 to 100%
same,pest or weed control at 25 ppm,[3],76 to 100%
same,pest or weed control at 100 ppm,[4],76 to 100%
CN1CCCC/C1=N\c1nc(OCc2ccccc2)ncc1F [Compound 421],pest or weed control at 25 ppm,[5],76 to 100%
same,pest or weed control at 100 ppm,[6],76 to 100%
same,pest or weed control at 25 ppm,[7],76 to 100%
same,pest or weed control at 100 ppm,[8],76 to 100%
CCC(C)C(Oc1ncc(F)c(N)n1)c1ccc(F)cc1 (stereo not shown) [Compound 403],pest or weed control at 25 ppm,[5],76 to 100%
same,pest or weed control at 100 ppm,[6],76 to 100%
same,pest or weed control at 25 ppm,[7],26 to 50%
same,pest or weed control at 100 ppm,[8],76 to 100%
"CN(C)/C=N/c1nc(OC(=O)c2ccccc2)ncc1F [Compound 27, Benzoic acid 4-(dimethylamino-methyleneamino)-5-fluoropyrimidin-2-yl ester]",pest or weed control at 25 ppm,[1],76 to 100%
same,pest or weed control at 100 ppm,[2],76 to 100%
same,pest or weed control at 25 ppm,[3],76 to 100%
same,pest or weed control at 100 ppm,[4],76 to 100%
O=[N+]([O-])c1ccccc1SNc1nc(OCc2cc(F)c(F)c(F)c2)ncc1F [Compound 525],pest or weed control at 25 ppm,[5],76 to 100%
same,pest or weed control at 100 ppm,[6],76 to 100%
same,pest or weed control at 25 ppm,[7],76 to 100%
same,pest or weed control at 100 ppm,[8],76 to 100%
"Cc1ccc(COc2ncc(F)c(NCO)n2)cc1 [Compound 16, [5-Fluoro-2-(4-methylbenzyloxy)pyrimidin-4-ylamino]methanol]",pest or weed control at 25 ppm,[1],76 to 100%
same,pest or weed control at 100 ppm,[2],76 to 100%
same,pest or weed control at 25 ppm,[3],76 to 100%
same,pest or weed control at 100 ppm,[4],76 to 100%
Cn1ccc(COc2ncc(F)c(/N=C/N3CCOCC3)n2)n1 [Compound 108],pest or weed control at 25 ppm,[1],76 to 100%
same,pest or weed control at 100 ppm,[2],76 to 100%
same,pest or weed control at 25 ppm,[3],76 to 100%
same,pest or weed control at 100 ppm,[4],76 to 100%
CCCCCNC(=S)Nc1nc(OCc2ccc(C)cc2)ncc1F [Compound 287],pest or weed control at 25 ppm,[5],76 to 100%
same,pest or weed control at 100 ppm,[6],76 to 100%
same,pest or weed control at 25 ppm,[7],76 to 100%
same,pest or weed control at 100 ppm,[8],76 to 100%
CCCCCCOc1ncc(F)c(NCO)n1 [Compound 99],pest or weed control at 25 ppm,[1],0 to 25%
same,pest or weed control at 100 ppm,[2],76 to 100%
same,pest or weed control at 25 ppm,[3],0 to 25%
same,pest or weed control at 100 ppm,[4],51 to 75%
COc1ccc(COc2ncc(F)c(N)n2)c(Cl)c1OC [Compound 698],pest or weed control at 25 ppm,[9],76 to 100%
same,pest or weed control at 100 ppm,[10],76 to 100%
same,pest or weed control at 25 ppm,[11],76 to 100%
same,pest or weed control at 100 ppm,[12],76 to 100%
C=CCOc1ncc(F)c(N/N=C(\C)c2ccc(F)cc2)n1 [Compound 1060],pest or weed control at 25 ppm,[13],0 to 25%
same,pest or weed control at 25 ppm,[14],0 to 25%
same,pest or weed control at 25 ppm,[15],0 to 25%
same,pest or weed control at 100 ppm,[16],0 to 25%
Nc1nc(OCC2CCCCC2)ncc1F [Compound 846],pest or weed control at 50 ppm,"24 h, one day protectant",0 to 25%
same,pest or weed control at 200 ppm,"24 h, one day protectant",26 to 50%
Fc1cnc(OCCc2ccccc2)nc1NCCc1ccccc1 [Compound 862],pest or weed control at 50 ppm,"24 h, one day protectant",51 to 75%
same,pest or weed control at 200 ppm,"24 h, one day protectant",76 to 100%
CCCCCOC(=O)Nc1nc(OCc2ccc(F)cc2)ncc1F [Compound 984],pest or weed control at 25 ppm,[13],76 to 100%
same,pest or weed control at 25 ppm,[14],76 to 100%
same,pest or weed control at 25 ppm,[15],76 to 100%
same,pest or weed control at 100 ppm,[16],76 to 100%
CC(C)C(=O)NNc1nc(OCc2ccc(F)cc2)ncc1F [Compound 793],pest or weed control at 25 ppm,[5],0 to 25%
same,pest or weed control at 100 ppm,[6],0 to 25%
same,pest or weed control at 25 ppm,[7],0 to 25%
same,pest or weed control at 100 ppm,[8],0 to 25%
N#Cc1cccc(COc2ncc(F)c(NC(=O)Nc3ccccc3)n2)c1 [Compound 555],pest or weed control at 25 ppm,[9],0 to 25%
same,pest or weed control at 100 ppm,[10],0 to 25%
same,pest or weed control at 25 ppm,[11],0 to 25%
same,pest or weed control at 100 ppm,[12],0 to 25%
O=[N+]([O-])c1ccccc1SNc1nc(OCc2ccc3c(c2)OCO3)ncc1F [Compound 151],pest or weed control at 25 ppm,[1],0 to 25%
same,pest or weed control at 100 ppm,[2],0 to 25%
same,pest or weed control at 25 ppm,[3],26 to 50%
same,pest or weed control at 100 ppm,[4],26 to 50%
Fc1cnc(OCc2ccc(Cl)c(Cl)c2)nc1NC1CC1 [Compound 909],pest or weed control at 200 ppm,"24 h, one day protectant",76 to 100%
Fc1ccc(COc2ncc(F)c(NCc3cccs3)n2)cc1F [Compound 890],pest or weed control at 200 ppm,"24 h, one day protectant",76 to 100%
COc1ccc(COc2ncc(F)c(NC(=S)NCc3ccccc3F)n2)cc1F [Compound 75],pest or weed control at 25 ppm,[1],26 to 50%
same,pest or weed control at 100 ppm,[2],76 to 100%
same,pest or weed control at 25 ppm,[3],76 to 100%
same,pest or weed control at 100 ppm,[4],76 to 100%
